# Legend:
# S.sanguis 10556 = assay: Inhibition of bacterial growth (24 h, optical density); type: cell-based, Streptococcus sanguis; settings: for IC50: 50% inhibition in growth, 24 hours, means of triplicate experiments, read-out: ID/50 (the source's name); for ID/50: recalculated as ppm F, 1440 min
# [1] = Dissolution of hydroxyapatite discs following fluoride treatment (phosphate release)
# S.salivarius SS4 = assay: Inhibition of bacterial growth (24 h, optical density); type: cell-based, Streptococcus salivarius; settings: for IC50: 50% inhibition in growth, 24 hours, means of triplicate experiments, read-out: ID/50 (the source's name); for ID/50: recalculated as ppm F, 1440 min
# S.sanguis 10557 = assay: as above; type: cell-based, Streptococcus sanguis; settings: for IC50: 50% inhibition in growth, 24 hours, means of triplicate experiments, read-out: ID/50 (the source's name); for ID/50: recalculated as ppm F, 1440 min
# S.mutans OMZ-176 = assay: as above; type: cell-based, Streptococcus mutans; settings: for IC50: 50% inhibition in growth, 24 hours, means of triplicate experiments, read-out: ID/50 (the source's name); for ID/50: recalculated as ppm F, 1440 min
# Osborne-Mendel rats = assay: Rat caries study; type: in vivo
# S.salivarius H-257 = assay: Inhibition of bacterial growth (24 h, optical density); type: cell-based, Streptococcus salivarius; settings: for IC50: 50% inhibition in growth, 24 hours, means of triplicate experiments, read-out: ID/50 (the source's name); for ID/50: recalculated as ppm F, 1440 min
# S.mutans 6715 = assay: as above; type: cell-based, Streptococcus mutans; settings: recalculated as ppm F, 1440 min
# L.casei = assay: as above; type: cell-based, Lactobacillus casei; settings: for IC50: 50% inhibition in growth, 24 hours, means of triplicate experiments, read-out: ID/50 (the source's name); for ID/50: recalculated as ppm F, 1440 min
# [2] = Stability of solution on standing (haze / turbidity)
# [3] = normal temperature and pressure
# Artificial Plaque = assay: In vitro antiplaque study on saliva-coated aluminium plummets; type: cell-based; settings: means ± 95% confidence limits, five replicas
# [4] = complexing between the Zn and NH4; cited from earlier work
# [5] = Availability of F ion by fluoride-selective electrode; type: physicochemical; settings: Orion fluoride electrode
# pH of aqueous solution = type: physicochemical
# Source text: An aqueous solution of ZnNH4F3 has a pH of 5.8. The preferred pH of oral compositions containing ZnNH4F3 is from 4.5 to 8.0. A 1000 ppm F^- solution was stable.
# [6] = 1000 ppm F- solution, pH 4.0, vs disc treated with buffer alone, means of triplicate, 30 min
# [7] = 1000 ppm F- solution, pH 5.0, vs disc treated with buffer alone, means of triplicate, 30 min
# [8] = 1000 ppm F- solution, pH 6.0, vs disc treated with buffer alone, means of triplicate, 30 min
# [9] = 1000 ppm F- solution, pH 7.0, vs disc treated with buffer alone, means of triplicate, 30 min
Compound,IC50 (S.sanguis 10556),ID/50 (S.sanguis 10556),"% Reduction in Dissolution [1, 6]","% Reduction in Dissolution [1, 7]","% Reduction in Dissolution [1, 8]","% Reduction in Dissolution [1, 9]",IC50 (S.salivarius SS4),ID/50 (S.salivarius SS4),IC50 (S.sanguis 10557),ID/50 (S.sanguis 10557),IC50 (S.mutans OMZ-176),ID/50 (S.mutans OMZ-176),IC50 (S.salivarius H-257),ID/50 (S.salivarius H-257),ID/50 (S.mutans 6715),IC50 (L.casei),ID/50 (L.casei),Percentage Inhibition of Growth of Artificial Plaque (Artificial Plaque; Zinc Conc. 6.0 mM/L),Percentage Inhibition of Growth of Artificial Plaque (Artificial Plaque; Zinc Conc. 15.0 mM/L),Percentage Inhibition of Growth of Artificial Plaque (Artificial Plaque; Zinc Conc. 30.0 mM/L),further results
[F-].[Na+] [NaF],1.18 mM,22 ppm F,44%,36%,31%,31%,13.4 mM,255 ppm F,1.82 mM,35 ppm F,16.3 mM,309 ppm F,3.77 mM,72 ppm F,138 ppm F,> 12 mM,352 ppm F,,,,"Caries/ Rat (Osborne-Mendel rats; 1000 ppm F-, topical to molar teeth, 21 days, cariogenic diet, only severe lesions (B & C) scored, water control 5.25): 3.69; % Reduction (Osborne-Mendel rats; reduction in caries based on the water control, 1000 ppm F-, topical, 21 days): 29.7%"
[F][Sn][F] [SnF2],,,57%,54%,45%,43%,,,,,,,,,,,,,,,stability of solution ([2]; after 24 hours at room temperature): developed turbidity
[F][Zn][F] [ZnF2],,,,,,,,,,,,,,,,,,,,,solubility [3]: 1.5%
Cl.N.[Cl-].[Cl-].[Zn+2] [ZnNH4Cl3],0.46 mM,,,,,,6.5 mM,,,,,,,,,10 mM,,,,,
O=S(=O)([O-])[O-].[Zn+2] [ZnSO4],0.36 mM,,,,,,6 mM,,0.4 mM,,7.5 mM,,0.75 mM,,,10.4 mM,,47 ± 14,51 ± 14,64 ± 14,
zinc ammonium fluoride [ZnNH4F3],0.21 mM,12 ppm F,,,,,1.88 mM,104 ppm F,0.25 mM,14 ppm F,3.05 mM,174 ppm F,0.34 mM,19 ppm F,92 ppm F,4.7 mM,268 ppm F,45 ± 14,48 ± 14,60 ± 14,"log K [4]: 2.18-2.59; % Reduction in Dissolution ([1]; hydroxyapatite discs, pH 4, 30 min): 52%; % Reduction in Dissolution ([1]; hydroxyapatite discs, pH 5, 30 min): 49%; % Reduction in Dissolution ([1]; hydroxyapatite discs, pH 6, 30 min): 43%; % Reduction in Dissolution ([1]; hydroxyapatite discs, pH 7, 30 min): 40%; availability of F ion ([5]; solution at 1000 ppm F level): 100%; availability of F ion ([5]; solution at 2500 ppm F level): 100%; % Reduction (Osborne-Mendel rats; rat, in vivo): 30.9%; Caries/ Rat (Osborne-Mendel rats; rat, in vivo): 3.63; pH of aqueous solution (pH of aqueous solution): 5.8; stability of solution ([2]; 1000 ppm F- solution, not hazy on standing after several weeks): stable"

# — EP0121012A1, “Oral compositions” (UNILEVER PLC, priority 1983, dated 1984)
